Structures are written as SMILES.

For the assay, the system named is arachidonic acid-induced pulmonary embolism. Description: Inhibiting effect on arachidonic acid-induced pulmonary embolism (in vivo). The note with it: Mus musculus, 3 h; oral administration in aqueous CMC to fasted ddY-male mice; arachidonic acid (125 mg/10ml/kg) into tail vein three hours later; dose required to induce at least 15 % decrease in recovery time of locomotive activity vs control; read-out: Minimum effective dose. Here is the method: [Inhibiting effect on arachidonic acid-induced pulmonary embolism (in vivo)]
An aqueous carboxymethylcellulose (hereinafter referred to as "CMC") solution containing a test compound (20 ml/kg) was orally administered to ddY-male mice (8 mice per group) fasted overnight.
As for `CC(Cc1ccc(NCC(=O)O)cc1)NS(=O)(=O)c1ccc(Cl)cc1` (stereo not shown) [Example 2], the minimal effective dose was determined as 1 mg/kg.
Regarding `CC(CNS(=O)(=O)c1ccc(Cl)cc1)c1ccc(NCC(=O)NCCCC(=O)O)cc1` (stereo not shown) [Example 4], the minimal effective dose stood at 3 mg/kg.
The value for `O=C([O-])CNc1ccc(CCNS(=O)(=O)c2ccccc2)cc1.[Na+]` [Known compound, Sodium N-[4-(2-benzenesulfonylaminoethyl)phenyl]glycinate, reference compound] was 10 mg/kg; that for `CC(CNS(=O)(=O)c1ccc(Cl)cc1)c1ccc(NCC(=O)NCCC(=O)O)cc1` (stereo not shown) [Example 3] was 1 mg/kg.

The values are drawn from patent EP0375557A1, “Glycine derivative process for preparation thereof, and pharmaceutical composition containing it” (TANABE SEIYAKU CO., LTD., priority 1988, dated 1990).
